# Measured values: ChEMBL document CHEMBL1143491, “Pentacyclic triterpenes. Part 1: the first examples of naturally occurring pentacyclic triterpenes as a new class of inhibitors of glycogen phosphorylases” (Bioorg Med Chem Lett, 2005)
# Target: T1, Glycogen phosphorylase, liver form (Rattus norvegicus, UniProt P09811)
# T1 sequence (P09811 whole entry): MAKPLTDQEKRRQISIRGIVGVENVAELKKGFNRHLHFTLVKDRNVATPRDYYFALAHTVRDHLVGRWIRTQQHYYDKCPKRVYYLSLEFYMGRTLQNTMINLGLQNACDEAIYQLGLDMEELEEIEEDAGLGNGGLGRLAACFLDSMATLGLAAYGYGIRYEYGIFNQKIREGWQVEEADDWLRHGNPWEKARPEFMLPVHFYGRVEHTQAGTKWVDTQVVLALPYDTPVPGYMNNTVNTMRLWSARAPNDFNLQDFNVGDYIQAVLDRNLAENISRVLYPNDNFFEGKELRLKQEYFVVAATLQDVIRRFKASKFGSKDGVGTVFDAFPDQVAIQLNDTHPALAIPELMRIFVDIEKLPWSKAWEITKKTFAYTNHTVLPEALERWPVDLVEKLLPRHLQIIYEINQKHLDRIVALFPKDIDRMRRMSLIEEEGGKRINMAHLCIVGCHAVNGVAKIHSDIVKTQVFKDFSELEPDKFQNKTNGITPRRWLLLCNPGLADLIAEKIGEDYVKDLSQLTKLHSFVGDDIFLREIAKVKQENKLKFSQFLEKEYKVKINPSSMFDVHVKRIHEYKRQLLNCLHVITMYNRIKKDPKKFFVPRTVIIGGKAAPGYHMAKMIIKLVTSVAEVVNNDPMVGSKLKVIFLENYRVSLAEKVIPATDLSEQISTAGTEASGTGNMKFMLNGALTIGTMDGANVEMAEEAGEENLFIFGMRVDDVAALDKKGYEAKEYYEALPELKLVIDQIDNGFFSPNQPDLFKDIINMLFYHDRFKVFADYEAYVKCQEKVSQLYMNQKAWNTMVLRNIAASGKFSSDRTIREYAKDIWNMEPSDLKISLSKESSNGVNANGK
# Assay: Inhibitory concentration against rat liver glycogen phosphorylase
row,IC50 [µM],SMILES
1,648,Cn1c(=O)c2c(ncn2C)n(C)c1=O [CAFFEINE]
2,99,CC1(C)CC[C@]2(C(=O)O)CC[C@]3(C)C(=CC[C@@H]4[C@@]5(C)C[C@@H](O)[C@H](O)C(C)(C)[C@@H]5CC[C@]43C)[C@@H]2C1 [MASLINIC ACID]
3,101,C[C@H]1[C@H](C)CC[C@]2(C(=O)O)CC[C@]3(C)C(=CC[C@@H]4[C@@]5(C)C[C@@H](O)[C@H](O)C(C)(C)[C@@H]5CC[C@]43C)[C@H]12 [COROSOLIC ACID]
